A value given as a limit tells only on which side of the number the result lay.

This is an account of results in ChEMBL document CHEMBL4483862, “Open-source discovery of chemical leads for next-generation chemoprotective antimalarials” (2018).

For this experiment, the system named is Plasmodium berghei. The experiment is described as follows: Luciferase/luciferin-expressing antifolate-resistant parasites were used to infect a culture of HepG2 cells that were pre-incubated with compounds. Infected hepatocytes emit light due to the luciferase reaction. Assay results are presented as the percent inhibition of light emission compared to control. […]. The experiment is classed as functional. Conditions: sporozoite; for IC90: read-out: LUCIFERASE INFECTION ASSAY - IC90.

For the compound `CC(C)(C)c1ccccc1N1C(=O)C=CC1=O`, the IC90 (commonly the point of the concentration-response curve where the effect stands at 90%) worked out at 6.59 µM. Also, the IC50 (as a rule, the concentration needed to halve the response being measured) (HEPG2TOX_HILL_SLOPE 10.3, HEPG2TOX_R_SQUARED 0.72, PBLUC_HILL_SLOPE 8.87, PBLUC_R_SQUARED 0.496, read-out: LUCIFERASE INFECTION ASSAY - IC50) turned out to be 5.14 µM.
With `OCc1ccc(-c2cnc3ccc(-c4cncnc4)nn23)cc1`, the IC90 came to 3.81 µM. Moreover, the IC50 (HEPG2TOX_HILL_SLOPE 10.3, HEPG2TOX_R_SQUARED 0.526, PBLUC_HILL_SLOPE 13.6, PBLUC_R_SQUARED 0.613, read-out: LUCIFERASE INFECTION ASSAY - IC50) worked out at 3.24 µM.
As for `COc1ccc(Nc2nccc3[nH]c(-c4cccc(F)c4)cc23)cc1`, the IC90 stood at 3.55 µM. Also, under “HEPG2TOX_HILL_SLOPE 10.4, HEPG2TOX_R_SQUARED 0.0549, PBLUC_HILL_SLOPE 2.88, PBLUC_R_SQUARED 0.623, read-out: LUCIFERASE INFECTION ASSAY - IC50”, the IC50 was determined as 1.66 µM.
On to `COc1cc(Nc2nc(C(F)(F)F)nc3ccccc23)cc(OC)c1OC`, for which the IC90 is over 10 µM. The IC50 (HEPG2TOX_HILL_SLOPE 10.4, HEPG2TOX_R_SQUARED 0.414, PBLUC_HILL_SLOPE 1.58, PBLUC_R_SQUARED 0.452, read-out: LUCIFERASE INFECTION ASSAY - IC50) came out at 4.12 µM.
Turning to `C=CCN(c1ccc(Cl)cc1)S(=O)(=O)c1cccc(C(=O)C(C#N)c2nc3ccccc3n2C)c1` (stereo not drawn), the IC90 was 3.88 µM. For the setting “HEPG2TOX_HILL_SLOPE 10.3, HEPG2TOX_R_SQUARED 0.536, PBLUC_HILL_SLOPE 9.9, PBLUC_R_SQUARED 0.166, read-out: LUCIFERASE INFECTION ASSAY - IC50”, the IC50 amounted to 3.1 µM.
Consider `CN(C)c1cc(CNC(=O)c2cc3c(F)cccc3s2)ccn1`, for which the IC90 is 7.57 µM. For the same compound, the IC50 (HEPG2TOX_HILL_SLOPE 10.4, HEPG2TOX_R_SQUARED 0.0222, PBLUC_HILL_SLOPE 5.26, PBLUC_R_SQUARED 0.456, read-out: LUCIFERASE INFECTION ASSAY - IC50) came to 4.99 µM.
Consider `CN(C)CCNC(=O)c1cccc(-c2cnc3ccc(-c4ccc(F)cc4)nn23)c1`, for which the IC90 was over 10 µM. The IC50 (HEPG2TOX_HILL_SLOPE 10.3, HEPG2TOX_R_SQUARED 0.505, PBLUC_HILL_SLOPE 2.09, PBLUC_R_SQUARED 0.253, read-out: LUCIFERASE INFECTION ASSAY - IC50) came to 4.88 µM.
On to `COC(=O)c1c(NC(=O)c2ccco2)c2cc(NC(C)Cc3ccccc3F)cnc2n1C` (stereo not drawn), for which the IC90 is over 7.33 µM. In addition, the IC50 (HEPG2TOX_HILL_SLOPE 10.3, HEPG2TOX_R_SQUARED 0.591, PBLUC_HILL_SLOPE 7.35, PBLUC_R_SQUARED 0.509, read-out: LUCIFERASE INFECTION ASSAY - IC50) was 6.19 µM.
`O=C(NC1CC1)c1ccc(-c2cnc3c(NCc4ccco4)nccn23)cc1`: the IC90 worked out at 3.44 µM. Besides, where the note is “HEPG2TOX_HILL_SLOPE 10.4, HEPG2TOX_R_SQUARED 0.433, PBLUC_HILL_SLOPE 17.4, PBLUC_R_SQUARED 0.253, read-out: LUCIFERASE INFECTION ASSAY - IC50”, the IC50 came out at 3.03 µM.
Regarding `Cc1ccc(CCC2CCN(C(=O)CCCNC3=NS(=O)(=O)c4ccccc43)CC2)cc1`, the IC90 came to 3.84 µM. Further, the IC50 (HEPG2TOX_HILL_SLOPE 10.3, HEPG2TOX_R_SQUARED 0.945, PBLUC_HILL_SLOPE 12.1, PBLUC_R_SQUARED 0.567, read-out: LUCIFERASE INFECTION ASSAY - IC50) was found to be 3.2 µM.
For `CN(C)c1c(F)cc(C(=O)Nc2cc(C(F)(F)F)cc(C(F)(F)F)c2)cc1F`, the IC90 was over 8 µM. Also, the IC50 (HEPG2TOX_HILL_SLOPE 10.3, HEPG2TOX_R_SQUARED 0.772, PBLUC_HILL_SLOPE 1.36, PBLUC_R_SQUARED 0.505, read-out: LUCIFERASE INFECTION ASSAY - IC50) is over 8 µM.
For `O=C(Nc1nonc1-c1cccs1)c1cccc(Cl)c1`, the IC90 was over 10.8 µM. Moreover, the IC50 (HEPG2TOX_HILL_SLOPE 10.4, HEPG2TOX_R_SQUARED 0.681, PBLUC_HILL_SLOPE 17.7, PBLUC_R_SQUARED 0.0482, read-out: LUCIFERASE INFECTION ASSAY - IC50) worked out at 9.87 µM.
As for `CC(C)C(CNc1nc(-c2ccsc2)nc2ccccc12)N1CCN(C)CC1` (stereo not drawn), the IC90 was over 10 µM. Besides, the IC50 (HEPG2TOX_HILL_SLOPE 10.4, HEPG2TOX_R_SQUARED 0.591, PBLUC_HILL_SLOPE 1.6, PBLUC_R_SQUARED 0.533, read-out: LUCIFERASE INFECTION ASSAY - IC50) was found to be 2.79 µM.
On to `CC(=O)c1c(C)cc(C)c(CNc2ccc(NC(=O)C3CC3)cc2C(F)(F)F)c1C`, for which the IC90 was determined as 4.59 µM. Besides, the IC50 (HEPG2TOX_HILL_SLOPE 10.3, HEPG2TOX_R_SQUARED 0.233, PBLUC_HILL_SLOPE 1.48, PBLUC_R_SQUARED 0.914, read-out: LUCIFERASE INFECTION ASSAY - IC50) came out at 1.03 µM.
With `COc1ccc(-c2cnc3cnc(-c4ccc(OC)nc4)cn23)cc1`, the IC90 amounted to 8.79 µM. In addition, under “HEPG2TOX_HILL_SLOPE 10.4, HEPG2TOX_R_SQUARED 0.778, PBLUC_HILL_SLOPE 1.98, PBLUC_R_SQUARED 0.81, read-out: LUCIFERASE INFECTION ASSAY - IC50”, the IC50 turned out to be 2.91 µM.
For `O=C(Nc1ccc(Cl)c(C(F)(F)F)c1)C(OC(=O)C12CC3CC(CC(C3)C1)C2)c1ccccc1` (stereo not drawn), the IC90 worked out at 9.6 µM. The IC50 (HEPG2TOX_HILL_SLOPE 10.4, HEPG2TOX_R_SQUARED 0.074, PBLUC_HILL_SLOPE 15.3, PBLUC_R_SQUARED 0.511, read-out: LUCIFERASE INFECTION ASSAY - IC50) amounted to 8.31 µM.
With `CN(C)c1ccc(NC(=O)CCc2nc(-c3ccc(Cl)cc3)no2)c(C#N)c1Cl`, the IC90 was over 7.67 µM. In addition, under “HEPG2TOX_HILL_SLOPE 10.4, HEPG2TOX_R_SQUARED 0.728, PBLUC_HILL_SLOPE 0.523, PBLUC_R_SQUARED 0.342, read-out: LUCIFERASE INFECTION ASSAY - IC50”, the IC50 was over 7.67 µM.
As to `O=C(Nc1nc2ccc(Oc3ccccc3)cc2s1)c1ccc(S(=O)(=O)C(F)F)cc1`, the IC90 is over 10 µM. Also, under “HEPG2TOX_HILL_SLOPE 10.3, HEPG2TOX_R_SQUARED 0.512, read-out: LUCIFERASE INFECTION ASSAY - IC50”, the IC50 is over 10 µM.
On to `Clc1ccc(Nc2nccc3c2ncn3Cc2ccccc2)cc1`, for which the IC90 is over 10 µM. Also, under “HEPG2TOX_HILL_SLOPE 10.4, HEPG2TOX_R_SQUARED 0.978, PBLUC_HILL_SLOPE 0.755, PBLUC_R_SQUARED 0.638, read-out: LUCIFERASE INFECTION ASSAY - IC50”, the IC50 was 0.827 µM.
`C#CCOc1ccccc1/C=C1\SC(NC2CCCCC2)=NC1=O`: the IC90 worked out at 0.4 µM. Also, the IC50 (HEPG2TOX_HILL_SLOPE 10.3, HEPG2TOX_R_SQUARED 0.343, PBLUC_HILL_SLOPE 2.57, PBLUC_R_SQUARED 0.554, read-out: LUCIFERASE INFECTION ASSAY - IC50) is 0.17 µM.
Turning to `O=C(Nc1ncccc1O)c1csc(COc2ccc(Cl)cc2)n1`, the 90% effect concentration (IC90) was determined as 7.89 µM. Moreover, the IC50 (HEPG2TOX_HILL_SLOPE 10.3, HEPG2TOX_R_SQUARED 0.899, PBLUC_HILL_SLOPE 4.56, PBLUC_R_SQUARED 0.315, read-out: LUCIFERASE INFECTION ASSAY - IC50) turned out to be 4.88 µM.
On to `CC1CC1c1ccc(/C=C2\C(=O)Nc3cc(Cl)ccc32)o1` (stereo not drawn), for which the IC90 was over 10 µM. Moreover, the IC50 (HEPG2TOX_HILL_SLOPE 10.3, HEPG2TOX_R_SQUARED 0.792, PBLUC_HILL_SLOPE 17.7, PBLUC_R_SQUARED 0.192, read-out: LUCIFERASE INFECTION ASSAY - IC50) was determined as 9.66 µM.
`COCCCNC(=S)Nc1cccc2ccccc12`: the IC90 is over 12 µM. Further, for the setting “HEPG2TOX_HILL_SLOPE 10.4, HEPG2TOX_R_SQUARED 0.777, PBLUC_HILL_SLOPE 18.1, PBLUC_R_SQUARED 0.604, read-out: LUCIFERASE INFECTION ASSAY - IC50”, the IC50 is 11.8 µM.
`O=C(CCc1ccco1)Nc1ccc(-n2nccn2)cc1`: the IC90 is over 10 µM. In addition, the IC50 (HEPG2TOX_HILL_SLOPE 10.3, HEPG2TOX_R_SQUARED 0.943, PBLUC_HILL_SLOPE 1.03, PBLUC_R_SQUARED 0.655, read-out: LUCIFERASE INFECTION ASSAY - IC50) is 4.85 µM.
As for `Cc1nnc(Oc2ccc(C#N)cc2Cl)c2ccccc12`, the IC90 was over 10 µM. For the setting “HEPG2TOX_HILL_SLOPE 10.4, HEPG2TOX_R_SQUARED 0.426, read-out: LUCIFERASE INFECTION ASSAY - IC50”, the IC50 was over 10 µM.
Consider `COc1ccc(C)cc1CCNc1cc(Cl)nc(N)n1`, for which the IC90 was over 10 µM. Further, the IC50 (HEPG2TOX_HILL_SLOPE 10.5, HEPG2TOX_R_SQUARED 0.0746, read-out: LUCIFERASE INFECTION ASSAY - IC50) was over 10 µM.
Regarding `CCNC(=O)N1CCc2nc(NCc3cccc(Oc4ccccc4)c3)ncc2C1`, the concentration for an effect of 90% (IC90) came out at 3.94 µM. Besides, the IC50 (HEPG2TOX_HILL_SLOPE 10.3, HEPG2TOX_R_SQUARED 0.577, PBLUC_HILL_SLOPE 136, PBLUC_R_SQUARED 0.208, read-out: LUCIFERASE INFECTION ASSAY - IC50) came out at 3.87 µM.
In the case of `Cc1nc(COc2ccc(C(=O)Nc3nc(-c4ccccn4)cs3)cc2)no1`, the IC90 amounted to 3.46 µM. Under “HEPG2TOX_HILL_SLOPE 10.4, HEPG2TOX_R_SQUARED 0.524, PBLUC_HILL_SLOPE 14, PBLUC_R_SQUARED 0.305, read-out: LUCIFERASE INFECTION ASSAY - IC50”, the IC50 was 2.96 µM.
Turning to `COc1ccc(-c2c(C)nn3c(=O)cc(-c4ccccc4)[nH]c23)cc1`, the IC90 was 9.94 µM. For the same compound, the half-inhibitory concentration (IC50) (HEPG2TOX_HILL_SLOPE 10.3, HEPG2TOX_R_SQUARED 0.705, PBLUC_HILL_SLOPE 12.5, PBLUC_R_SQUARED 0.547, read-out: LUCIFERASE INFECTION ASSAY - IC50) was determined as 8.34 µM.
